Data from PubChem BioAssay (NCI).
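GI50: concentration for 50% inhibition of growth. At the TGI there is no net growth.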

What was measured:
Test in all cases: growth of human tumour cells (NCI), 384-well format
[1] = test system: A549 NSCLC
[2] = test system: ACHN renal
[3] = test system: HCT-116 colon
[4] = test system: HL-60(TB) leukemia
[5] = test system: MDA-MB-435 melanoma
[6] = test system: NCI-H226 lung
[7] = test system: NCI-H460 NSCLC
[8] = test system: OVCAR-8 ovarian
[9] = test system: PC-3 prostate
[10] = test system: SK-MEL-28 melanoma
[11] = test system: SN12C renal
[12] = test system: SW-620 colon
[13] = test system: U251 glioblastoma

SMILES: CC#CC(=O)N1CC[C@@H](n2c(=O)n(-c3ccc(Oc4ccccc4)cc3)c3c(N)ncnc32)C1
- GI50 [1]: 34.8 µM
- TGI [1]: > 100 µM
- GI50 [2]: 31.6 µM
- TGI [2]: > 100 µM
- GI50 [3]: 22.1 µM
- TGI [3]: 54.8 µM
- GI50 [4]: 13.9 µM
- TGI [4]: 26.9 µM
- GI50 [5]: 30 µM
- TGI [5]: > 80.4 µM
- GI50 [6]: 21.8 µM
- TGI [6]: > 74.4 µM
- GI50 [7]: 17.1 µM
- TGI [7]: 33.4 µM
- GI50 [8]: 27.6 µM
- TGI [8]: > 100 µM
- GI50 [9]: 35.1 µM
- TGI [9]: > 100 µM
- GI50 [10]: 68.3 µM
- TGI [10]: > 100 µM
- GI50 [11]: 20.2 µM
- TGI [11]: > 90.9 µM
- GI50 [12]: 25.6 µM
- TGI [12]: 55.9 µM
- GI50 [13]: 18.1 µM
- TGI [13]: 40.3 µM
